Data: BindingDB's records for doi:10.1016/j.bioorg.2017.03.013 (Birla Institute of Technology, 2017)

biological target: Gag-Pol polyprotein (Human immunodeficiency virus type 1 group M subtype B (isolate HXB2), UniProt P04585); assay: HIV-1 RT In-Vitro Assay
Description: The reaction mixture was set with template primer complex, RT enzyme and dNTPs in a lysis buffer with or without inhibitors. The reaction mixture was incubated at 37 °C for 1 h and then transferred to streptavidine-coated microtitre plate (MTP). The biotin-labeled dNTPs that were incorporated in the template due to activity of RT, bound to streptavidine. The unbound dNTPs were washed using wash buffer and anti-DIG-POD was added to the MTP. The DIG-labeled dNTPs incorporated in the template were bound to an anti-DIG-POD antibody. The unbound anti-DIG-POD was washed again with washing buffer and the peroxide substrate (ABST) was added to the MTP. A colored reaction product was produced during the cleavage of the substrate catalyzed by a peroxide enzyme. The absorbance of the sample was determined as an optical density (OD) at 405 nm using a micro titer plate ELISA reader.

Compared with `Cc1cccc(C(=O)N2c3ccccc3NC(=O)CC2C)c1` (centres undefined) [5-(3-methylbenzoyl)-4-methyl-1,3,4,5-tetrahydro-2H-1,5-benzodiazepin-2-one (A3)], `CC1CC(=O)Nc2ccccc2N1C(=O)c1cccc(F)c1` (centres undefined) [5-(3-fluorobenzoyl)-4-methyl-1,3,4,5-tetrahydro-2H-1,5-benzodiazepin-2-one (A8)] is 2.9-fold higher in IC50: 26.4 µM for the first, 76.3 µM for the second.

Going from `CC1CC(=O)Nc2ccccc2N1C(=O)c1ccccc1F` (centres undefined) [5-(2-fluorobenzoyl)-4-methyl-1,3,4,5-tetrahydro-2H-1,5-benzodiazepin-2-one (A7)] to `Cc1ccccc1C(=O)N1c2ccccc2NC(=O)CC1C` (centres undefined) [5-(2-methylbenzoyl)-4-methyl-1,3,4,5-tetrahydro-2H-1,5-benzodiazepin-2-one (A2)], the IC50 falls from > 100 µM to 14.3 µM. The second is the more potent here.

Compared with `CC1CC(=O)Nc2ccccc2N1C(=O)c1ccc(Cl)cc1` (centres undefined) [5-(4-chlorobenzoyl)-4-methyl-1,3,4,5-tetrahydro-2H-1,5-benzodiazepin-2-one (A12)], `Cc1ccc(C(=O)N2c3ccccc3NC(=O)CC2C)cc1` (centres undefined) [5-(4-methylbenzoyl)-4-methyl-1,3,4,5-tetrahydro-2H-1,5-benzodiazepin-2-one (A4)] is higher in IC50: 38.3 µM for the first, > 100 µM for the second.

Going from `CC1CC(=O)Nc2ccccc2N1C(=O)c1ccccc1Cl` (centres undefined) [5-(2-chlorobenzoyl)-4-methyl-1,3,4,5-tetrahydro-2H-1,5-benzodiazepin-2-one (A10)] to `CC1CC(=O)Nc2ccccc2N1C(=O)c1ccccc1Br` (centres undefined) [5-(2-bromobenzoyl)-4-methyl-1,3,4,5-tetrahydro-2H-1,5-benzodiazepin-2-one (A13)], the IC50 rises from 8.62 µM to 92.5 µM (11-fold).

Compared with `CC1CC(=O)Nc2ccccc2N1C(=O)c1ccccc1` (centres undefined) [5-(benzoyl)-4-methyl-1,3,4,5-tetrahydro-2H-1,5-benzodiazepin-2-one (A1)], `CC1CC(=O)Nc2ccccc2N1C(=O)c1cccc(Cl)c1` (centres undefined) [5-(3-chlorobenzoyl)-4-methyl-1,3,4,5-tetrahydro-2H-1,5-benzodiazepin-2-one (A11)] is 2.5-fold lower in IC50: 17.5 µM for the first, 6.87 µM for the second. The second is the more potent here.

First: COc1cccc(C(=O)N2c3ccccc3NC(=O)CC2C)c1 (centres undefined) [5-(3-methoxybenzoyl)-4-methyl-1,3,4,5-tetrahydro-2H-1,5-benzodiazepin-2-one (A5)]
Second: COc1ccc(C(=O)N2c3ccccc3NC(=O)CC2C)cc1 (centres undefined) [5-(4-methoxybenzoyl)-4-methyl-1,3,4,5-tetrahydro-2H-1,5-benzodiazepin-2-one (A6)]
The IC50 of the first is 1.6-fold higher: 87.9 µM for the first, 54.6 µM for the second.

Going from `CC1CC(=O)Nc2ccccc2N1C(=O)c1ccc(Br)cc1` (centres undefined) [5-(4-bromobenzoyl)-4-methyl-1,3,4,5-tetrahydro-2H-1,5-benzodiazepin-2-one (A14)] to `CC1CC(=O)Nc2ccccc2N1C(=O)c1ccc(F)cc1` (centres undefined) [5-(4-fluorobenzoyl)-4-methyl-1,3,4,5-tetrahydro-2H-1,5-benzodiazepin-2-one (A9)], the IC50 falls from 68.7 µM to 25 µM (2.7-fold).
